“Also recorded” adds a separate entry of the source.
Columns and labels:
BChE (from human serum) = BChE (from human serum) (Homo sapiens, UniProt P06276); assay: In vitro cholinesterase inhibition assay; assay type: biochemical
BChE = BChE (Homo sapiens, UniProt P06276); assay: Kinetic study of BChE inhibition; assay type: biochemical
Sequence of BChE (P06276 29-602): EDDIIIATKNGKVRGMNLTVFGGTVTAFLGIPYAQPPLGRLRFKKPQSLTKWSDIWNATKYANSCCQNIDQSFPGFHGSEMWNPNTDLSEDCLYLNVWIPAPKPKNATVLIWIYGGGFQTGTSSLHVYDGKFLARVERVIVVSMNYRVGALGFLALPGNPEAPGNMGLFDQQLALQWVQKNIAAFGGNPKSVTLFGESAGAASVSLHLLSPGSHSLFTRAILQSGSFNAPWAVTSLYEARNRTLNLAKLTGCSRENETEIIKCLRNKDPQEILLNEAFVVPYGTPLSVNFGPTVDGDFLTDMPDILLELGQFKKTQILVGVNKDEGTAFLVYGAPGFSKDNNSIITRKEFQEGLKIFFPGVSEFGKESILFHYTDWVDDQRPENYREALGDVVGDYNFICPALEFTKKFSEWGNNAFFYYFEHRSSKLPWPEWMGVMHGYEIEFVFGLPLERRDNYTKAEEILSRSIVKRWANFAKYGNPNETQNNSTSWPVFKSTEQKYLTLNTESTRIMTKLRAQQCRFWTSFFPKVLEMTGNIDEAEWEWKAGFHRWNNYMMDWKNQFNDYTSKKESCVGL

Sequence of BChE (from human serum) (P06276 29-602): as above

O=C1CN(C(=O)CCn2ccnc2)CC(O)CN1CCc1ccccc1 (centres unmarked) [Compound 5, 4-(3-(1H-imidazol-1-yl)propanoyl)-6-hydroxy-1-phenethyl-1,4-diazepan-2-one]
IC50 (BChE (from human serum)): 1400 nM
inhibition at 10 µM (BChE (from human serum); read-out: BChE IR (%), inhibition ratio): 66%
Ki (BChE): 540 ± 70 nM
Type of BChE inhibition (BChE): mixed-type inhibitor; also recorded: mixed-type inhibition
Inhibition constant Ki, uncompetitive part (Kiu) (BChE; substrate BTC 90-904 μM): 2900 ± 1000 nM
